This is an account of results in ChEMBL document CHEMBL1201862, “PubChem BioAssay data set” (2004).

Test systems include MOLT-4; SNB-75; HCT-116; SF-539; EKVX; MCF7; KM12; UACC-257; UACC-62; HOP-92; RPMI-8226; SF-295; A549; COLO 205; UO-31; HOP-62; HT-29; SK-MEL-28; TK-10.
What all share (assay): NCI-60 cell line screen, 48 h

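Dose response: 5 concentrations. Exposure: 48 h. Format: 96-well plates. Endpoint: linear interpolation; highest concentration if not reached. GI50 is the concentration that inhibits growth by half.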 Activity calls are given as the source filed them. Rule as the data show it: active = GI50 up to about 1.1 µM and inactive = higher. Some results are limits rather than exact numbers.

As to `COc1cc(/C=C/C(=O)Oc2ccc(NC(C)=O)cc2)ccc1C(=O)O/C=C/c1ccccc1`, the GI50 with MOLT-4 was 66.8 µM (inactive); in the assay on SNB-75, > 100 µM (inactive); with HCT-116, > 100 µM (inactive); with SF-539 it was > 100 µM (inactive); with EKVX it was > 100 µM (inactive); in the assay on MCF7, > 100 µM (inactive). Moreover, the GI50 in the assay on KM12, in the assay with UACC-257, in the assay with UACC-62, with HOP-92, in the assay with RPMI-8226 and with SF-295 was > 100 µM (inactive) each time. Also, the GI50 in the assay with A549 was > 100 µM (inactive); in the assay with COLO 205, > 100 µM (inactive); in the assay with UO-31 it was 76.4 µM (inactive); in the assay on HOP-62, > 100 µM (inactive); in the assay on HT-29 it was > 100 µM (inactive); in the assay with SK-MEL-28, > 100 µM (inactive).
Take `O=C1Sc2sc(=S)sc2SC1c1ccccc1` (stereo unspecified): the GI50 in the assay on MOLT-4 was 31.6 µM (inactive); in the assay on SNB-75, > 50.2 µM (inactive); with HCT-116, > 59 µM (inactive); in the assay with SF-539, 74 µM (inactive); in the assay with EKVX, > 100 µM (inactive); with MCF7, 67.9 µM (inactive). The GI50 in the assay with KM12 was > 80.9 µM (inactive); in the assay with UACC-257, > 74.3 µM (inactive); with UACC-62, 26.8 µM (inactive); in the assay on HOP-92, 36.6 µM (inactive); in the assay with RPMI-8226, 46.9 µM (inactive); in the assay on SF-295, > 81.1 µM (inactive). Besides, the GI50 with A549 was > 100 µM (inactive); in the assay on COLO 205 it was 37.2 µM (inactive); in the assay with UO-31 it was 39 µM (inactive); in the assay with HOP-62, > 100 µM (inactive); in the assay with HT-29 it was 40.8 µM (inactive); in the assay on SK-MEL-28, > 45.6 µM (inactive).
On to `O=C1C=CC(=C(c2ccc(O)cc2)c2ccc(O)cc2)C=C1` [AURIN], for which the GI50 was 4.71 µM (inactive) in the assay with MOLT-4; 3.21 µM (inactive) in the assay with SNB-75; 10.8 µM (inactive) in the assay with HCT-116; 11.3 µM (inactive) with SF-539; 19 µM (inactive) in the assay with TK-10; 15.1 µM (inactive) with EKVX. For the same compound, the GI50 in the assay on KM12 was 12.8 µM (inactive); in the assay with UACC-257 it was 9.68 µM (inactive); in the assay with UACC-62 it was 3.91 µM (inactive); in the assay with HOP-92, 2.07 µM (inactive); in the assay with RPMI-8226, 3.85 µM (inactive); in the assay on SF-295 it was 12.5 µM (inactive). Besides, the GI50 with A549 was 22 µM (inactive); in the assay with COLO 205, 17.7 µM (inactive); in the assay with UO-31 it was 17 µM (inactive); with HOP-62, 20.2 µM (inactive); in the assay on HT-29, 18.6 µM (inactive); with SK-MEL-28, 12.1 µM (inactive).
As for `CC(=O)OC1CCC2(C)C(CCC3C2CCC2(C)C(c4ccc(=O)oc4)C(OC(C)=O)CC32O)C1` (stereo unspecified), the GI50 is 0.0163 µM (active) in the assay with MOLT-4; 0.0183 µM (active) with SNB-75; 0.0157 µM (active) in the assay with HCT-116; 0.0125 µM (active) in the assay with SF-539; 0.0168 µM (active) with EKVX; 0.0164 µM (active) in the assay with MCF7. The GI50 with KM12 was 0.0172 µM (active); in the assay on UACC-257, 0.023 µM (active); in the assay on UACC-62 it was 0.0169 µM (active); with HOP-92, 0.0195 µM (active); with RPMI-8226 it was 0.0148 µM (active); in the assay with SF-295 it was 0.016 µM (active). Also, the GI50 in the assay on A549 is 0.0135 µM (active); with COLO 205, 0.0288 µM (active); with UO-31, 0.0156 µM (active); in the assay with HOP-62, 0.015 µM (active); with HT-29, 0.0263 µM (active); with SK-MEL-28, 0.0277 µM (active).
As to `O=C(Cl)c1cc([N+](=O)[O-])cc([N+](=O)[O-])c1`, the GI50 with MOLT-4, with SNB-75, with HCT-116, in the assay with SF-539, in the assay on TK-10 and in the assay with EKVX was > 100 µM (inactive) in each case. For the same compound, the GI50 in the assay on KM12, with UACC-257, in the assay on UACC-62, with HOP-92, with RPMI-8226 and in the assay with SF-295 was > 100 µM (inactive) throughout. The GI50 with A549, with COLO 205, with UO-31, in the assay with HOP-62, in the assay with HT-29 and in the assay on SK-MEL-28 was > 100 µM (inactive) throughout.
As to `COc1cccc(NC(=O)CC(=O)N2N=C(N3c4ccccc4Sc4ccccc43)CC2c2ccccc2)c1` (stereo unspecified), the GI50 with MOLT-4, in the assay on SNB-75, in the assay on HCT-116, with SF-539, in the assay with TK-10 and in the assay with EKVX was > 100 µM (inactive) in each case. Besides, the GI50 in the assay on KM12, in the assay on UACC-257, in the assay on UACC-62, in the assay on HOP-92, in the assay on RPMI-8226 and in the assay on SF-295 was > 100 µM (inactive) each time. For the same compound, the GI50 in the assay on A549, in the assay with COLO 205, in the assay on UO-31, in the assay with HOP-62, in the assay with HT-29 and in the assay on SK-MEL-28 was > 100 µM (inactive) throughout.
Regarding `COc1ccc(OC(=O)CC2Cc3cc(OC)c(OC)c(OC)c3-c3ccc(SC)c(=O)cc32)cc1` (stereo unspecified), the GI50 in the assay on MOLT-4 is 0.387 µM (active); in the assay with SNB-75, 2.52 µM (inactive); in the assay on HCT-116, 0.156 µM (active); in the assay with SF-539, 0.114 µM (active); in the assay on TK-10, 29.7 µM (inactive); in the assay on EKVX it was > 28.7 µM (inactive). Further, the GI50 was 0.107 µM (active) in the assay with KM12; 0.273 µM (active) in the assay on UACC-257; 0.232 µM (active) in the assay on UACC-62; 0.467 µM (active) in the assay with HOP-92; 0.128 µM (active) in the assay with RPMI-8226; 0.0794 µM (active) in the assay on SF-295. Moreover, the GI50 with A549 was 0.762 µM (active); in the assay with COLO 205 it was 0.403 µM (active); with UO-31 it was 0.792 µM (active); in the assay with HOP-62, 0.183 µM (active); in the assay with HT-29, 0.342 µM (active); in the assay on SK-MEL-28 it was 0.698 µM (active).
With `CSC(SC)=C1Sc2cccc(Cl)c2S1`, the GI50 in the assay on MOLT-4 is 31.8 µM (inactive); in the assay on SNB-75, 65.6 µM (inactive); with HCT-116, 41.5 µM (inactive); in the assay on SF-539 it was 74.6 µM (inactive); in the assay with TK-10 it was 76 µM (inactive); in the assay with EKVX, 35.4 µM (inactive). Moreover, the GI50 in the assay with KM12 is 83 µM (inactive); in the assay with UACC-257 it was > 100 µM (inactive); in the assay on UACC-62, 95.1 µM (inactive); in the assay on HOP-92, 15.8 µM (inactive); in the assay on RPMI-8226 it was 36.2 µM (inactive); in the assay on SF-295 it was 56.5 µM (inactive). The GI50 in the assay with A549 was > 100 µM (inactive); with COLO 205 it was 20.4 µM (inactive); with UO-31, 52.5 µM (inactive); with HOP-62, > 100 µM (inactive); in the assay with HT-29 it was 29 µM (inactive); in the assay on SK-MEL-28 it was > 100 µM (inactive).
With `C[C@H]1C(=O)O[C@@H]1[C@H]1COC(C)(C)O1`, the GI50 with MOLT-4 is > 100 µM (inactive); with SNB-75 it was 82 µM (inactive); in the assay with SF-539, > 100 µM (inactive); in the assay with TK-10, > 100 µM (inactive); with EKVX it was > 100 µM (inactive); in the assay with MCF7, > 100 µM (inactive). Besides, the GI50 in the assay with KM12, in the assay with UACC-257, with UACC-62, with HOP-92, in the assay with RPMI-8226 and with SF-295 was > 100 µM (inactive) each time. Besides, the GI50 in the assay with A549, in the assay with UO-31, in the assay with HOP-62 and with SK-MEL-28 was > 100 µM (inactive) each time.
Consider `CCOC(=O)N1CCc2cc(OC)c(OC)cc2/C1=C/c1ccc(OC)c(OC)c1`, for which the GI50 in the assay on MOLT-4 is 33.2 µM (inactive); in the assay with SNB-75, 37.9 µM (inactive); with HCT-116, 38.4 µM (inactive); with SF-539 it was > 100 µM (inactive); in the assay with TK-10 it was > 100 µM (inactive); in the assay with EKVX it was 79.4 µM (inactive). The GI50 in the assay with KM12 was 45.3 µM (inactive); with UACC-257, 37.2 µM (inactive); in the assay on UACC-62, 55.8 µM (inactive); with HOP-92, 30.5 µM (inactive); in the assay with RPMI-8226 it was 19.3 µM (inactive); in the assay with SF-295 it was 52.2 µM (inactive). The GI50 is 43.1 µM (inactive) with A549; 37.8 µM (inactive) in the assay on COLO 205; 27.8 µM (inactive) in the assay on UO-31; 84.5 µM (inactive) in the assay with HOP-62; 28.4 µM (inactive) with HT-29; > 100 µM (inactive) with SK-MEL-28.
Consider `COc1ccccc1NC(=O)CC(=O)N1N=C(C)C(/N=N/c2ccc(S(N)(=O)=O)cc2)C1=O` (stereo unspecified), for which the GI50 with MOLT-4, in the assay on SNB-75, in the assay with HCT-116, in the assay with SF-539, in the assay on TK-10 and in the assay on EKVX was > 100 µM (inactive) throughout. For the same compound, the GI50 in the assay on KM12, in the assay on UACC-257, in the assay on UACC-62, with HOP-92, with RPMI-8226 and in the assay on SF-295 was > 100 µM (inactive) each time. The GI50 with A549, in the assay with COLO 205, with UO-31, in the assay on HOP-62, in the assay with HT-29 and in the assay with SK-MEL-28 was > 100 µM (inactive) throughout.
